In US9936700B2, “Substituted quinoxaline derivatives as pest control agent” (BAYER CROPSCIENCE AKTIENGESELLSCHAFT, priority 2013, dated 2018):
Read-outs that look alike come from different tables or passages of the source. Values belong to the molecule of their own block, whether it stands above or below them.

Columns and labels:
[1] = tested on: Tetranychus urticae; experiment: Tetranychus urticae spray test, OP-resistant (TETRUR); format: in vivo; conditions: 500 g/ha, bean leaf discs, after 6 days
Protocol: Tetranychus urticae—spray test, OP-resistant (TETRUR)
• Solvent: 78.0 parts by weight of acetone • 1.5 parts by weight of dimethylformamide • Emulsifier: 0.5 part by weight of alkylaryl polyglycol ether
After 6 days, the efficacy in % is determined. 100% means that all the spider mites have been killed; 0% means that no spider mites have been killed.

[2] = log P by reversed-phase HPLC (EEC Directive 79/831 Annex V.A8); format: physicochemical; conditions: for chromatographic logP: reversed-phase C18 HPLC column
Source text: NMR data and log P values: log P (HCOOH)=log P[a] log P (neutral)=log P[b]
^[a] […] Called log P (HCOOH) in the table.
^[b] […] Called log P (neutral) in the table.

[3] = tested on: Myzus persicae; experiment: Myzus persicae spray test (MYZUPE); format: in vivo; conditions: Chinese cabbage leaf discs, after 6 days
Protocol: Myzus persicae—spray test (MYZUPE)
• Solvent: 78 parts by weight of acetone • 1.5 parts by weight of dimethylformamide • Emulsifier: 0.5 part by weight of alkylaryl polyglycol ether
After 6 days, the efficacy in % is determined. 100% means that all the aphids have been killed; 0% means that no aphids have been killed.

[4] = tested on: Aphis gossypii; experiment: Aphis gossypii spray test; format: in vivo; conditions: 20 ppm, cotton plants, after 6 days
Protocol: Aphis gossypii—spray test
• Solvent: 7 parts by weight of dimethylformamide • Emulsifier: alkylaryl polyglycol ether
To produce further test concentrations, the preparation is diluted with emulsifier-containing water. If the addition of ammonium salts or/and penetrants is required, these are each added in a concentration of 1000 ppm to the formulation solution.
After 6 days, the kill in % is determined. 100% means that all the aphids have been killed; 0% means that no aphids have been killed.

[5] = acidic range, pH 2.7, 0.1% aqueous formic acid/acetonitrile
[6] = neutral range, pH 7.8, aqueous ammonium hydrogencarbonate/acetonitrile
[7] = neutral range, pH 7.8, aqueous ammonium hydrogencarbonate/acetonitrile, read-out: logP [b] = log P (neutral)

SMILES: CCc1cnccc1-c1cnc2ccc(C(F)(F)F)cc2n1 [Example I-27]
efficacy (spider mites killed) [1]: 90%

logP [a] = log P (HCOOH) ([2]; pH 2.7): 4.56
SMILES: CCSc1ccccc1-c1cnc2cc(Cl)ccc2n1 [Example I-23]

SMILES: Cc1cnccc1-c1cnc2cc(F)c(F)cc2n1 [Example I-63]
logP [a] = log P (HCOOH) ([2]; pH 2.7): 1.55 | efficacy (aphids killed) ([3]; 500 g/ha): 90%

SMILES: FC(F)(F)c1ccc2nc(Cl)c(-c3ccc(Cl)cc3)nc2c1 [Example I-53]
logP [a] = log P (HCOOH) [2, 5]: 5.31

logP [a] = log P (HCOOH) ([2]; pH 2.7): 5.38 | logP [b] = log P (neutral) ([2]; pH 7.8): 5.48
SMILES: CCSc1ccccc1-c1cnc2cc(Cl)c(Cl)cc2n1 [Example I-42]

logP [a] = log P (HCOOH) ([2]; pH 2.7): 3.27
SMILES: FC(F)(F)c1ccc2nc(-c3ccncc3Cl)cnc2c1 [Example I-10]
efficacy (aphids killed) ([3]; 100 g/ha): 100% | efficacy (kill of aphids) [4]: 85%

SMILES: Cc1cnccc1-c1cnc2cc(Cl)c(Cl)cc2n1 [Example I-41]
logP [a] = log P (HCOOH) ([2]; pH 2.7): 2.51 | logP [b] = log P (neutral) ([2]; pH 7.8): 3.29

logP [a] = log P (HCOOH) ([2]; pH 2.7): 2.01
SMILES: Clc1ccc2nc(-c3cncnc3)cnc2c1 [Example I-19]

logP [a] = log P (HCOOH) ([2]; pH 2.7): 4.57
SMILES: Cc1cscc1-c1cnc2cc(C(F)(F)F)ccc2n1 [Example I-45]

logP [a] = log P (HCOOH) ([2]; pH 2.7): 2.85 | logP [b] = log P (neutral) ([2]; pH 7.8): 2.78
SMILES: CCSc1ccccc1-c1cnc2ccc(S(C)(=O)=O)cc2n1 [Example I-35]

SMILES: Cc1ccccc1-c1cnc2ccc(C(F)(F)F)cc2n1 [Example I-47]
logP [a] = log P (HCOOH) [2, 5]: 4.47 | logP [b] = log P (neutral) [2, 6]: 4.41

chromatographic logP ([2]; acidic range, pH 2.7, 0.1% aqueous formic acid/acetonitrile, read-out: logP [a] = log P (HCOOH)): 5.2
SMILES: CCSc1ccccc1-c1nc2ccc(C(F)(F)F)cc2nc1Cl [Example I-3, 3-Chloro-2-[2-(ethylsulfanyl)phenyl]-6-(trifluoromethyl)quinoxaline]

logP [a] = log P (HCOOH) ([2]; pH 2.7): 4.04 | logP [b] = log P (neutral) ([2]; pH 7.8): 4.00
SMILES: Cc1ccc(-c2c[n+]([O-])c3ccc(C(F)(F)F)cc3n2)c(F)c1 [Example I-54]

chromatographic logP [2, 7]: 1.65
SMILES: O=c1cnc2ccc(C(F)(F)F)cc2[nH]1 [VIa-02, 7-(trifluoromethyl)quinoxalin-2(1H)-one]

SMILES: Cn1nccc1-c1cnc2ccc(C(F)(F)F)cc2n1 [Example I-50]
logP [a] = log P (HCOOH) [2, 5]: 3.02 | logP [b] = log P (neutral) [2, 6]: 3.00

logP [a] = log P (HCOOH) ([2]; pH 2.7): 2.66 | logP [b] = log P (neutral) ([2]; pH 7.8): 2.65
SMILES: CC[S+]([O-])c1ccccc1-c1cnc2cc(Cl)ccc2n1 (centres unmarked) [Example I-31]
efficacy (aphids killed) ([3]; 500 g/ha): 90%

SMILES: Cc1c[n+]([O-])ccc1-c1c[n+]([O-])c2cc(C(F)(F)F)ccc2n1 [Example I-55]
logP [a] = log P (HCOOH) [2, 5]: 1.59

SMILES: Cc1cnccc1-c1cnc2ccc(S(C)(=O)=O)cc2n1 [Example I-13]
logP [a] = log P (HCOOH) ([2]; pH 2.7): 0.72 | logP [b] = log P (neutral) ([2]; pH 7.8): 1.34

SMILES: Clc1cc2ncc(-c3ccncc3)nc2cc1Cl [Example I-73]
logP [a] = log P (HCOOH) [2, 5]: 2.53

SMILES: Cc1cnccc1-c1nc2cc3c(cc2nc1C)OC(F)(F)O3 [Example I-67]
logP [a] = log P (HCOOH) ([2]; pH 2.7): 2.02

SMILES: Cc1cccnc1-c1cnc2cc(C(F)(F)F)ccc2n1 [Example I-52]
logP [a] = log P (HCOOH) ([2]; pH 2.7): 3.69

logP [a] = log P (HCOOH) ([2]; pH 2.7): 4.97
SMILES: Cc1ccc(-c2cnc3ccc(C(F)(F)F)cc3n2)c(F)c1 [Example I-51]
efficacy (spider mites killed) [1]: 100%

SMILES: Cc1cnccc1-c1nc2cc(F)c(F)cc2nc1C [Example I-65]
logP [a] = log P (HCOOH) ([2]; pH 2.7): 1.58

SMILES: FC(F)(F)c1ccc2nc(-c3ccncc3)c(-c3ccncc3)nc2c1 [Example I-58]
logP [a] = log P (HCOOH) [2, 5]: 2.06

SMILES: Cc1cnccc1-c1cnc2cc(Cl)ccc2n1 [Example I-17]
logP [a] = log P (HCOOH) ([2]; pH 2.7): 1.69 | logP [b] = log P (neutral) ([2]; pH 7.8): 2.58

logP [a] = log P (HCOOH) ([2]; pH 2.7): 4.08
SMILES: CSc1ccccc1-c1cnc2cc(Cl)ccc2n1 [Example I-22]
efficacy (aphids killed) ([3]; 500 g/ha): 90%

chromatographic logP [2, 7]: 1.71
SMILES: O=c1cnc2cc(C(F)(F)F)ccc2[nH]1 [VIa-01, 6-(trifluoromethyl)quinoxalin-2(1H)-one]

logP [a] = log P (HCOOH) ([2]; pH 2.7): 4.65 | logP [b] = log P (neutral) ([2]; pH 7.8): 4.66
SMILES: Cc1ccsc1-c1cnc2ccc(C(F)(F)F)cc2n1 [Example I-43]
efficacy (spider mites killed) [1]: 90%

SMILES: Cc1ccccc1-c1cnc2cc(C(F)(F)F)ccc2n1 [Example I-46]
logP [a] = log P (HCOOH) [2, 5]: 4.48 | efficacy (spider mites killed) [1]: 90%
